Type in all cases: functional
For experiment [1], the system named is Staphylococcus aureus. Nature of the experiment: In vitro minimum inhibitory concentration against Staphylococcus aureus SN 7.
Experiment [2] has as its system Staphylococcus aureus. Nature of the experiment: In vitro minimum inhibitory concentration against Staphylococcus aureus SN 43.
For experiment [3], the system named is Staphylococcus aureus. Nature of the experiment: In vitro minimum inhibitory concentration against Staphylococcus aureus CDC1.
The test system of experiment [4] is Staphylococcus aureus. Nature of the experiment: In vitro minimum inhibitory concentration against Staphylococcus aureus COL.

SMILES strings stand for the structures. Converted amounts (≈) assume the structure as drawn. A value given as a limit tells only on which side of the number the result lay.

As for `C[C@@H](O)[C@H]1C(=O)N2C(C(=O)O)=C(COc3cccnc3)S[C@H]12`, the MIC in experiment [1] was found to be 0.78 µg/mL (≈ 2.42 µM); in experiment [2], 100 µg/mL (≈ 310 µM); in experiment [3], 0.19 µg/mL (≈ 0.589 µM); in experiment [4], 100 µg/mL (≈ 310 µM).

With `C[C@@H](O)[C@H]1C(=O)N2C(C(=O)O)=C(COc3cnccn3)S[C@H]12`, the MIC in experiment [1] is 0.39 µg/mL (≈ 1.21 µM); in experiment [2], above 100 µg/mL; in experiment [3], 0.19 µg/mL (≈ 0.588 µM); in experiment [4] it was 100 µg/mL (≈ 309 µM).

As for `C[C@@H](O)[C@H]1C(=O)N2C(C(=O)O)=C(COC(=O)c3ccc4c(ccc5ccccc54)c3)S[C@H]12`, the MIC in experiment [1] stood at 0.09 µg/mL (≈ 0.2 µM); in experiment [2], 6.25 µg/mL (≈ 13.9 µM); in experiment [3] it was 0.022 µg/mL (≈ 0.0489 µM); in experiment [4], 3.12 µg/mL (≈ 6.94 µM).

Regarding `C[C@@H](O)[C@H]1C(=O)N2C(C(=O)O)=C(COC(=O)c3cccnc3)S[C@H]12`, the MIC in experiment [1] is 0.19 µg/mL (≈ 0.542 µM); in experiment [2] it was 100 µg/mL (≈ 285 µM); in experiment [3] it was 0.09 µg/mL (≈ 0.257 µM); in experiment [4], 50 µg/mL (≈ 143 µM).

For `C[C@@H](O)[C@H]1C(=O)N2C(C(=O)O)=C(COc3ccccc3)S[C@H]12`, the MIC in experiment [1] is 50 µg/mL (≈ 156 µM); in experiment [2], 100 µg/mL (≈ 311 µM); in experiment [3], 0.39 µg/mL (≈ 1.21 µM); in experiment [4] it was 50 µg/mL (≈ 156 µM).

As to `C[C@@H](O)[C@H]1C(=O)N2C(C(=O)O)=C(COc3cncc4ccccc34)S[C@H]12`, the MIC in experiment [1] is 3.12 µg/mL (≈ 8.38 µM); in experiment [2], 12.5 µg/mL (≈ 33.6 µM); in experiment [3] it was 0.19 µg/mL (≈ 0.51 µM); in experiment [4], 6.25 µg/mL (≈ 16.8 µM).

Turning to `C[C@@H](O)[C@H]1C(=O)N2C(C(=O)O)=C(S[C@@H]3CN[C@H](C(=O)N(C)C)C3)[C@H](C)[C@H]12` [MEROPENEM], the MIC in experiment [1] was determined as 1.56 µg/mL (≈ 4.07 µM); in experiment [2], 25 µg/mL (≈ 65.2 µM); in experiment [3], 0.19 µg/mL (≈ 0.495 µM); in experiment [4], 100 µg/mL (≈ 261 µM).

In the case of `C[C@@H](O)[C@H]1C(=O)N2C(C(=O)O)=C(COC(=O)c3cn(C4CC4)c4cc(N5CCNCC5)c(F)cc4c3=O)S[C@H]12`, the MIC in experiment [1] came to 1.56 µg/mL (≈ 2.79 µM); in experiment [2] it was 50 µg/mL (≈ 89.5 µM); in experiment [3] it was 0.39 µg/mL (≈ 0.698 µM); in experiment [4], 6.25 µg/mL (≈ 11.2 µM).

On to `CC(O)[C@H]1C(=O)N2C(C(=O)O)=C(SCCNC=N)C[C@H]12.O` (single isomer, unassigned) [IMIPENEM], for which the MIC worked out at 0.19 µg/mL in experiment [1], 25 µg/mL in experiment [2], 0.09 µg/mL in experiment [3] and 25 µg/mL in experiment [4].

For `C[C@@H](O)[C@H]1C(=O)N2C(C(=O)O)=C(COC(=O)c3ccc4ccccc4c3)S[C@H]12`, the MIC in experiment [1] came out at 0.39 µg/mL (≈ 0.976 µM); in experiment [2], 6.25 µg/mL (≈ 15.6 µM); in experiment [3], 0.09 µg/mL (≈ 0.225 µM); in experiment [4], 12.5 µg/mL (≈ 31.3 µM).

`C[C@@H](O)[C@H]1C(=O)N2C(C(=O)O)=C(COc3cncc(Cl)c3)S[C@H]12`: the MIC in experiment [1] came out at 0.78 µg/mL (≈ 2.19 µM); in experiment [2], 50 µg/mL (≈ 140 µM); in experiment [3], 0.09 µg/mL (≈ 0.252 µM); in experiment [4], 25 µg/mL (≈ 70.1 µM).

As to `C[C@@H](O)[C@H]1C(=O)N2C(C(=O)O)=C(COC(N)=O)S[C@H]12` [RITIPENEM], the MIC in experiment [1] worked out at 0.39 µg/mL (≈ 1.35 µM); in experiment [2], 100 µg/mL (≈ 347 µM); in experiment [3], 0.19 µg/mL (≈ 0.659 µM); in experiment [4], 100 µg/mL (≈ 347 µM).

As for `C[C@@H](O)[C@H]1C(=O)N2C(C(=O)O)=C(COC(=O)c3cnc4ccccc4c3)S[C@H]12`, the MIC in experiment [1] came to 0.19 µg/mL (≈ 0.475 µM); in experiment [2], 12.5 µg/mL (≈ 31.2 µM); in experiment [3] it was 0.09 µg/mL (≈ 0.225 µM); in experiment [4] it was 6.25 µg/mL (≈ 15.6 µM).

For the compound `C[C@@H](O)[C@H]1C(=O)N2C(C(=O)O)=C(COC(=O)c3ccc4ccc5ccccc5c4c3)S[C@H]12`, the MIC in experiment [1] is below 0.011 µg/mL; in experiment [2], 6.25 µg/mL (≈ 13.9 µM); in experiment [3], below 0.011 µg/mL; in experiment [4], 6.25 µg/mL (≈ 13.9 µM).

Consider `C[C@@H](O)[C@H]1C(=O)N2C(C(=O)O)=C(COc3c(I)cc(Cl)c4cccnc34)S[C@H]12`, for which the MIC stood at 0.78 µg/mL (≈ 1.46 µM) in experiment [1], 25 µg/mL (≈ 46.9 µM) in experiment [2], 0.09 µg/mL (≈ 0.169 µM) in experiment [3] and 6.25 µg/mL (≈ 11.7 µM) in experiment [4].

Consider `COc1cccc(OC)c1C(=O)N[C@@H]1C(=O)N2[C@@H]1SC(C)(C)[C@@H]2C(=O)O` [METHICILLIN], for which the MIC in experiment [1] was 6.25 µg/mL (≈ 16.4 µM); in experiment [2] it was above 100 µg/mL; in experiment [3] it was 3.12 µg/mL (≈ 8.2 µM); in experiment [4] it was above 100 µg/mL.

`C[C@@H](O)[C@H]1C(=O)N2C(C(=O)O)=C(COC(=O)c3ccccc3)S[C@H]12`: the MIC in experiment [1] stood at 0.39 µg/mL (≈ 1.12 µM); in experiment [2], 50 µg/mL (≈ 143 µM); in experiment [3] it was 0.09 µg/mL (≈ 0.258 µM); in experiment [4], 25 µg/mL (≈ 71.6 µM).

As to `C[C@@H](O)[C@H]1C(=O)N2C(C(=O)O)=C(COC(=O)c3cnccn3)S[C@H]12`, the MIC in experiment [1] is 0.39 µg/mL (≈ 1.11 µM); in experiment [2], above 100 µg/mL; in experiment [3], 0.19 µg/mL (≈ 0.541 µM); in experiment [4], 100 µg/mL (≈ 285 µM).

As to `O=C(O)c1cn(C2CC2)c2cc(N3CCNCC3)c(F)cc2c1=O` [CIPROFLOXACIN], the MIC in experiment [1] is 0.78 µg/mL (≈ 2.35 µM); in experiment [3] it was 0.39 µg/mL (≈ 1.18 µM).
